Experimental findings from patent US20230414571A1, “APPLICATION OF SMALL-MOLECULE COMPOUND IN PREPARATION OF ANTITUMOR DRUG” (SOOCHOW UNIVERSITY, priority 2021, published 2023) are described below.

The AUC(0-t) is exposure summed from dosing to a finite time, without extrapolation to infinity. Low readings indicate less exposure, high ones more exposure. The term Cmax denotes the highest concentration seen after dosing. One may read the Tmax as the time from dosing to the highest level. Broadly, the half-life is how long it takes for the measured level to halve.

Data set [1] deals with U87 cell transplantation tumor (brain glioma). Description: MSI imaging of drug in brain tissue section (blood-brain barrier penetration). Conditions: MSI of brain tissue section with U87 glioma implant. The format is in vivo. The text has this: FIG. 9 is an MSI image of a drug and a metabolite (compound 27: m/z 499, lactic acid: m/z 113) in a brain tissue section, where an optical micrograph of a serial section of H&E staining is used as a reference. The brain glioma and the lateral ventricle are represented by dashed lines, a color bar encodes signal strength of […] small molecules in […] (MSI), and the resolution is 10 μm.

The next data set relates to U87MG tumor. Description: U87MG tumor growth and survival in mice after various treatments. It is filed as in vivo, nude mouse. An excerpt: In all different experimental groups (a and b in FIG. 10), the overall survival (OS) of mice treated with TMZ and compound 27 is the best. […] However, mouse death caused by glioma is reduced only 20 days […] treatment. After this period of time, the survival rates of the in-situ U87 heterogeneous tumor of the two single drug groups decreases rapidly due to malignant glioma.

Another data set relates to U87 glioma cells. Description: Targeted metabonomics analysis of U87 cells. The format is cell-based. On the procedure: 1×10^7 cells (a sample cell number) were collected, and the cell supernatant was removed by means of centrifugation (1000×g, 1 minute) after quenching with a newly prepared quencher. The cells were resuspended with 100 μL of ultrapure water and mixed well. After 800 μL of cold methanol:acetonitrile (1:1, v/v) was added, the uniformly mixed cell samples were subjected to ultrasonic treatment in an ice bath for 30 minutes. The mixture was stored at −20° C. for 1 h to precipitate the protein. After centrifugation at 4° C. (14000×g, 20 minutes), the supernatant was collected, lyophilized, stored at −80° C., and then analyzed by means of […].
The lyophilized samples were resuspended in a solution (acetonitrile:water, 1:1, v/v, 100 μL) and then centrifuged at 4° C. (14000×g, 10 minutes). The supernatant (100 μL) was collected and diluted with an acetonitrile solution (100 μL), and a […] sample was loaded at 4° C. by using an Agilent 1290 Infinity liquid chromatography (LC) system (Agilent Technologies, Beijing, China) and a 5500 QTRAP mass spectrometer (Toronto of Canada, AB Sciex). At ACQUITY-UPLC-BEH column (1.7 μm, 2.1 mm×150 mm, Waters Technology (Shanghai) Co., Ltd.), chromatographic separation was performed at a flow rate of 300 μL/min, where solvent A (mobile phase) was a 15 mM ammonium acetate aqueous solution, and solvent B was acetonitrile. Chromatographic conditions of gradient elution were reduced from 90% B to 40% B, and were increased sharply from 40% B to 90% B after 18 minutes, a volume ratio of 90% B was kept for 4.9 minutes after 0.1 minute, and the duration of the whole process was 23 minutes. An equal volume of compounds was extracted from 32 actual samples so as to monitor the stability of the system, thereby being used for processing a quality control (QC) sample and put into a real sample. Mass spectrum experiments were performed in a negative ion and multi-reaction monitoring mode, and specific parameters were as follows: a source temperature of 450° C., an atomizer gas (GS1): 45, an auxiliary gas (GS2): 45, a curtain gas (CUR): 30, and an ion space voltage floating (ISVF): −4500 V.
Standard GC-MS data was processed by using analysis software (AB Sciex, Toronto, Canada), which included converting the original mass spectrum data to data containing m/z, measuring the corresponding ion intensity and retention time, and subsequent statistical analysis. Peak testing and calibration of all the samples were compared to their chemical standards (Sigma-Aldrich). […]
Statistical significance was tested by using t. *: P<0.05, **: P<0.01, and ***: P<0.005. […] The hexokinase (HK2 in cancer cells), which is the first one and serves as a rate-limiting enzyme in a glycolysis pathway was evaluated. […]

Data set [2] can be described thus: Plasma pharmacokinetics in mice determined by GLMSD. As to conditions: mouse, in vivo, 40 mg/kg. The format is in vivo, mouse. The procedure: It can be seen from FIG. 8-1 that the GLMSD platform can specifically acquire the pharmacokinetic data of small-molecule compound 27. Competitive advantages of GLMSD in pharmacokinetic research: (1) a complete drug blood concentration curve of each individual may be tracked; and (2) the total number of mice used in the test is reduced. Since the blood sample consumption of the GLMSD method is low (10 μL of blood per time point), one mouse can be used for completing the entire pharmacokinetic curve (blood sampling at 11 time points within 24 hours, and the minimum interval being 0.25 hour) of a drug.
Based on the advantage that the complete PK curve can be tested by means of the GLMSD, we observe that 3 (#2, #3 and #4) in 8 mice have the characteristic re-absorption peak of this small-molecule inhibitor at the time point of 8 h, and such a characteristic re-absorption peak hardly exists in other 5 mice. This significant phenomenon is related to drug uptake differences between individuals, prompting that compound 27 may re-enter blood circulation by means of a secondary absorption pathway. In the mode of continuous multiple administration (c in FIG. 8-2), pharmacokinetic data of compound 27 (40 mg/kg) was collected from each mouse every day (1, 3, 6, and 8 hours after last administration) for 5 days. For a single dose (a in FIG. 8-2) or a continuous multi-dose (d in FIG. 8-2) administration manner, a limitation of a conventional LC-MS technology lies in obtaining a single data point of pharmacokinetics of a drug by sacrificing one mouse, whereas GLMSD can break through this limitation by providing a complete pharmacokinetic curve based on a single mouse.

With `CCOc1ccc(C(=O)NCCCN(C)CCCN(C)Cc2ccccc2)cc1Br` [compound 27], in data set [1], the “capacity of penetrating a blood-brain barrier” value is recorded as “can break through the blood-brain barrier”. For the same compound, the “growth of solid tumors” value in the data set with U87MG tumor (U87MG subcutaneous tumor, nude mouse) is given as “can inhibit growth of solid tumors”. In the data set with U87MG tumor (in situ U87-luciferase mice, compared with PBS), the “glioma growth / survival rate, bioluminescence tracking” value is given as “delays the growth of glioma”. Also, the median survival time in the data set with U87MG tumor (mice with U87MG tumor, n=6 per group) worked out at 30 days. Besides, in the data set on U87 glioma cells (U87 cells after treatment), the “glyceraldehyde-3-phosphate accumulation relative to control group processed by PBS” value is on record as “approximately 3.5 times” and the “increase in concentration of thiamine pyrophosphate (TPP)” value is around 2.5 times. For the same compound, the glyceride-3-phosphate change entry in the data set with U87 glioma cells (U87 cells after treatment, P<0.005) is listed as “significantly reduced by nearly two orders of magnitude”. The “concentration of glucose-6-phosphate” value in the data set with U87 glioma cells (U87 cells, vs control group processed by PBS) is given as “lower than that of the control group”. Moreover, in data set [2], the area under the curve AUC(0-t) was determined as 64.4 µg·h/mL, the Cmax came out at 14.7 µg/mL, the Tmax worked out at 2 h and the half-life was 4.12 h.
